In the supplement of paper PMC10307832:

Legend:
Experiment in all cases: relative viability (nuclei count vs DMSO), 5 days (fraction); higher = more cells survive
[1] = compound: C1=CC=C(C(=C1)C2=CC=C(C=C2)C3=CSC4=C3C(=C(C(=O)N4)C#N)O)O + CC(=O)c1c(C)c2cnc(Nc3ccc(N4CCNCC4)cn3)nc2n(C2CCCC2)c1=O [Palbociclib] (partner 0.5 µM)
Summary of the method: (§1)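 Cells from lung cancer lines were seeded into 1536-well plates and, one day later, dosed by pin tool. Treatments were either a single drug or a fixed dose of an anchor drug with five library-drug doses (not always all listed) in √10 steps. After 5 days, nuclei were stained in a one-step fixation (final 0.05% Triton X-100, 1% formaldehyde, 1 ug/ml Hoechst) and counted on 4× images, and relative viability is the treated-to-vehicle nuclei ratio, as the median of duplicate plates.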

TGX 221 + OSI-027 = compound: CC1=CN2C(=O)C=C(N=C2C(=C1)C(C)NC3=CC=CC=C3)N4CCOCC4 [TGX 221] + COc1cccc2cc(-c3nc([C@H]4CC[C@H](C(=O)O)CC4)n4ncnc(N)c34)[nH]c12 [OSI-027] (partner 0.5 µM)
Summary of the method: as §1

[2] = compound: C1=CC=C(C(=C1)C2=CC=C(C=C2)C3=CSC4=C3C(=C(C(=O)N4)C#N)O)O + Cc1nc(Nc2ncc(C(=O)Nc3c(C)cccc3Cl)s2)cc(N2CCN(CCO)CC2)n1 [Dasatinib] (partner 0.075 µM)
Summary of the method: as §1

TGX 221 + AZD7762 = compound: CC1=CN2C(=O)C=C(N=C2C(=C1)C(C)NC3=CC=CC=C3)N4CCOCC4 [TGX 221] + NC(=O)Nc1cc(-c2cccc(F)c2)sc1C(=O)N[C@H]1CCCNC1 [AZD7762] (partner 0.2 µM)
Summary of the method: as §1

Cell Line	relative viability ([1]; first compound 0.08 µM)	relative viability ([1]; first compound 0.253 µM)	relative viability ([1]; first compound 0.8 µM)	relative viability ([1]; first compound 2.53 µM)	relative viability ([1]; first compound 8 µM)	relative viability (TGX 221 + OSI-027; first compound 0.08 µM)	relative viability (TGX 221 + OSI-027; first compound 0.253 µM)	relative viability (TGX 221 + OSI-027; first compound 0.8 µM)	relative viability (TGX 221 + OSI-027; first compound 2.53 µM)	relative viability (TGX 221 + OSI-027; first compound 8 µM)	relative viability ([2]; first compound 0.08 µM)	relative viability ([2]; first compound 0.253 µM)	relative viability ([2]; first compound 0.8 µM)	relative viability ([2]; first compound 2.53 µM)	relative viability ([2]; first compound 8 µM)	relative viability (TGX 221 + AZD7762; first compound 0.08 µM)	relative viability (TGX 221 + AZD7762; first compound 0.253 µM)	relative viability (TGX 221 + AZD7762; first compound 0.8 µM)	relative viability (TGX 221 + AZD7762; first compound 2.53 µM)	relative viability (TGX 221 + AZD7762; first compound 8 µM)
LXF-289	0.612	0.595	0.681	0.629	0.675	0.817	0.809	0.756	0.754	0.757	0.185	0.188	0.223	0.23	0.231	1.12	1.12	1.06	1.03	1.08
NCI-H1975	0.464	0.483	0.511	0.539	0.4	0.694	0.676	0.653	0.528	0.555	0.327	0.369	0.345	0.333	0.37	0.688	0.694	0.668	0.662	0.557
NCI-H2347	0.46	0.429	0.361	0.442	0.423	0.463	0.321	0.376	0.29	0.296	0.331	0.276	0.28	0.284	0.314	0.639	0.61	0.639	0.583	0.547
RERF-LC-KJ	1.01	1.18	1.11	1.29	1.04	0.567	0.598	0.593	0.574	0.534	0.765	0.889	0.854	0.771	0.657	0.909	0.926	0.965	0.863	0.949
BEN	0.582	0.514	0.481	0.474	0.507	0.293	0.271	0.276	0.287	0.296	0.287	0.284	0.312	0.318	0.318	0.639	0.695	0.737	0.697	0.661
NCI-H358	0.13	0.17	0.124	0.135	0.123	0.716	0.719	0.756	0.739	0.583	0.211	0.2	0.174	0.139	0.196	0.497	0.631	0.462	0.58	0.515
NCI-H1944	0.329	0.343	0.352	0.306	0.289	0.377	0.39	0.397	0.409	0.388	0.224	0.248	0.219	0.178	0.215	–	0.501	0.453	0.513	0.455
201T	0.381	0.361	0.362	0.38	0.387	0.547	0.726	1.08	0.708	0.696	0.564	0.597	0.521	0.516	0.654	0.55	0.685	0.611	0.615	0.569
NCI-H647	–	0.387	0.392	0.346	0.22	0.475	0.562	0.483	0.517	0.425	0.153	0.189	0.191	0.183	0.1	0.324	0.448	0.407	0.278	0.328
NCI-H441	0.208	0.21	0.184	0.275	0.21	0.58	0.698	0.576	0.728	0.665	0.437	0.626	0.582	0.636	0.538	1.22	1.12	0.925	1.07	1.24
PC-3 [JPC-3]	0.496	0.599	0.535	0.601	0.577	0.756	0.775	0.788	0.751	0.806	0.818	0.731	0.913	1.11	0.953	0.689	0.72	0.817	0.755	0.758
NCI-H2126	0.377	0.347	0.337	0.333	0.394	0.703	0.733	0.619	0.539	0.702	0.588	0.573	0.604	0.45	0.568	0.943	0.907	1.04	0.966	1.15
HCC-15	0.786	0.867	0.766	0.897	0.617	0.672	0.713	0.754	0.592	0.681	0.522	0.627	0.601	0.673	0.61	1.1	1.02	0.673	1.21	1.13
NCI-H2085	0.468	0.573	0.435	0.49	0.472	0.714	0.645	0.659	0.323	0.462	0.22	0.264	0.238	0.224	0.258	0.96	0.769	0.583	0.37	0.397
LOU-NH91	0.501	0.542	0.535	0.544	0.534	0.711	0.72	0.727	0.745	0.701	0.493	0.589	0.506	0.542	0.489	0.73	0.758	0.746	0.789	0.714
NCI-H3122	0.203	0.214	0.186	0.21	0.231	0.874	0.929	1	0.864	0.963	1	0.715	0.91	0.829	0.721	0.974	0.925	1.01	0.994	0.981
